Laboratory results from patent US20150105281A1, “Method for the Selection of Serum Biomarkers of Epigenetic Alterations, Particularly of Global Hypomethylation and Their Uses” (Universite Paris Descartes, priority 2012, published 2015).

What was measured:
Type in all cases: cell-based, human
A549 = test: Cell viability (WST-1) with 5-aza-dC at increasing doses
Excerpt: (§1) To further determine the impact of global demethylation on the expression of hCGβ type II and pro-EPIL, we used 5-aza-2′ deoxycytidine (5-aza-dC), a strong inducer of DNA de-methylation and measured the levels of hCGβ type II and pro-EPIL in the supernatants of 10 cancer cell lines of various histological origin, treated at two different doses of 5-aza-dC. On the curve of viability of each cell line treated with 5-aza-dC at increasing doses, the two selected doses that have been selected for studying the effect of global hypomethylation by 5-aza-dC on the production of hCGβ type II and pro-EPIL were the doses corresponding to the 5-aza-dC concentrations at the inflexion point and at the 50% inhibition of cell viability (Inhibition growth Concentration 50% or IC 50), respectively (FIG. 3 and Table 2).
(§2) Briefly, 10,000 cells were plated in 96-well plates in 100 μl medium. After one day, dilution range of 5-aza-dC from 1,000 μM to 0.06 μM were added. After 96 h incubation time, 10 μl of WST-1 were added and optical density (O.D) were measured at 450 nm (FIG. 3 and Table 2).

BC173 = test: as above; conditions: 96 h
Excerpt: as §1, §2

CLRB018P = test: as above; conditions: 96 h
Excerpt: as §1, §2

HT1376 = test: as above
Excerpt: as §1, §2

JAR = test: as above; conditions: 96 h
Excerpt: as §1, §2

JEG = test: as above; conditions: 96 h
Excerpt: as §1, §2

LCF09 = test: as above; conditions: 96 h
Excerpt: as §1, §2

OBR = test: as above; conditions: 96 h
Excerpt: as §1, §2

SHP77 = test: as above
Excerpt: as §1, §2

TC320X6 = test: as above; conditions: 96 h
Excerpt: as §1, §2

pro-EPIL = test: Pro-EPIL in supernatants of cancer cell lines after induction of DNA demethylation (ELISA); conditions: 10 cancer cell lines, 72 h at dose A or dose B, supernatant, vs cells not exposed (FIG. 4A)
Excerpt: as §1
(§3) Experiments were performed as previously described. Briefly, in 75 cm^2 size cell culture flaks, cell lines were grew up to more than 50% confluence before treating them for 72 h with 5-aza-dC at either the doses A corresponding at the Inflection Points, or the doses B corresponding to IC50. […] After trypsinisation, cells were counted in malassez chamber using trypan blue. […] Then, the pro-EPIL and hCG B type II concentrations were determined by an ELISA immunoassay and an automated KRYPTOR immunoassay, respectively (Table 2, FIG. 4A, FIG. 4B).

hCGβ type II = hCGβ type II in supernatants of cancer cell lines after induction of DNA demethylation (KRYPTOR immunoassay); conditions: 10 cancer cell lines, 72 h at dose A or dose B, supernatant, vs cells not exposed (FIG. 4B)
Excerpt: as §1, §3

[1] = Homo sapiens, read-out: Dose B (5-aza-dC concentration at the 50% inhibition of cell viability, IC 50)

Nc1ncn([C@H]2C[C@H](O)[C@@H](CO)O2)c(=O)n1 [5-aza-dC, 5-aza-2′ deoxycytidine]
Dose A (5-aza-dC concentration at the inflexion point of the viability curve) (A549; A549, lung, 96 h, WST-1): 12.5 µM
IC50 (A549; Homo sapiens, A549, 96 h, read-out: Dose B (5-aza-dC concentration at the 50% inhibition of cell viability, IC 50)): 50 µM
Dose A (5-aza-dC concentration at the inflexion point of the viability curve) (BC173; BC173, breast, WST-1): 1.95 µM
IC50 (BC173; [1]): 117 µM
Dose A (5-aza-dC concentration at the inflexion point of the viability curve) (CLRB018P; CLRB018P, colon, WST-1): 15.6 µM
IC50 (CLRB018P; [1]): 186 µM
Dose A (5-aza-dC concentration at the inflexion point of the viability curve) (HT1376; HT1376, bladder, 96 h, WST-1): 1.6 µM
IC50 (HT1376; Homo sapiens, HT-1376, 96 h, read-out: Dose B (5-aza-dC concentration at the 50% inhibition of cell viability, IC 50)): 6.3 µM
IC50 (JAR; [1]): 17.7 µM
Dose A (5-aza-dC concentration at the inflexion point of the viability curve) (JAR; JAR, placenta, WST-1): 2 µM
IC50 (JEG; [1]): 5 µM
Dose A (5-aza-dC concentration at the inflexion point of the viability curve) (JEG; JEG, placenta, WST-1): 2.6 µM
IC50 (LCF09; [1]): 25 µM
Dose A (5-aza-dC concentration at the inflexion point of the viability curve) (LCF09; LCF09, lung, WST-1): 5 µM
IC50 (OBR; [1]): 20 µM
Dose A (5-aza-dC concentration at the inflexion point of the viability curve) (OBR; OBR, bladder, WST-1): 6.5 µM
IC50 (SHP77; Homo sapiens, SHP77, 96 h, read-out: Dose B (5-aza-dC concentration at the 50% inhibition of cell viability, IC 50)): 27.5 µM
Dose A (5-aza-dC concentration at the inflexion point of the viability curve) (SHP77; SHP77, lung, 96 h, WST-1): 8 µM
IC50 (TC320X6; [1]): 77 µM
Dose A (5-aza-dC concentration at the inflexion point of the viability curve) (TC320X6; TC320X6, colon, WST-1): 4 µM
Effect on the production of pro-EPIL (pro-EPIL): induced consistently an increase
Cell lines with an increase in the production of hCGβ type II (hCGβ type II): 7 out of 10
